How the values were obtained:
Type in all cases: functional, cell-based
H69AR [1] = assay: Antiproliferative activity against multi-drug resistant human NCI-H69AR assessed as reduction in cell viability
ZR-75-1 [2] = assay: Antiproliferative activity against multi-drug resistant human ZR-75-1 cells assessed as reduction in cell viability
ZR-75-1 [3] = assay: Antiproliferative activity against human ZR-75-1 cells assessed as reduction in cell viability celltiter-Glo assay
HT-29 [4] = assay: Antiproliferative activity against human HT-29 cells assessed as reduction in cell viability celltiter-Glo assay
A549 [5] = assay: Antiproliferative activity against human Non-small-cell lung cancer A549 cells assessed as reduction in cell viability incubated for 72 hrs by MTT assay; details: A549, 72 h
MCF7 = assay: Antiproliferative activity against Doxorubicin resistant human MCF7 cells assessed as reduction in cell viability
A549 [6] = assay: Antiproliferative activity against human A549 cells assessed as reduction in cell viability after 48 hrs by CellTiter-Blue assay; details: A549, 48 h
H69AR [7] = assay: Antiproliferative activity against multidrug resistant human NCI-H69AR assessed as inhibition of cell proliferation by MTT assay
HT-29 [8] = assay: Antiproliferative activity against human HT-29 cells assessed as reduction in cell viability incubated for 72 hrs by MTT assay; details: HT-29, 72 h
HeLa = assay: Anticancer activity against human HeLa cells assessed as inhibition of cell growth
HCT-116 = assay: Antiproliferative activity against human HCT-116

SMILES | IC50 (H69AR [1]) [µM] | IC50 (ZR-75-1 [2]) [µM] | IC50 (ZR-75-1 [3]) [µM] | IC50 (HT-29 [4]) [µM] | IC50 (A549 [5]) [µM] | IC50 (MCF7) [µM] | IC50 (A549 [6]) [µM] | IC50 (H69AR [7]) [µM] | IC50 (HT-29 [8]) [µM] | IC50 (HeLa) [µM] | IC50 (HCT-116) [µM]
CCN(CC)CCNC(=O)c1c(C)[nH]c(/C=C2\C(=O)Nc3ccc(F)cc32)c1C [SUNITINIB] | 5.8 | 18.9 | 5.87 | 10.1 | 3.06 | > 100 | 10.1 | 5.8 | – | – | –
COc1ccc2c(c1)/C(=N/NC(=O)c1cc3cc(OC)ccc3[nH]1)C(=O)N2Cc1ccccc1 | – | – | – | – | – | – | 0.54 | – | 2.94 | – | –
O=C1/C(=N\O)c2ccccc2N1CCOCCN1C(=O)/C(=N/O)c2ccccc21 | – | – | – | – | – | – | – | – | – | 6.23 | 6.23

Source: ChEMBL document CHEMBL5260847, “Current scenario of indole derivatives with potential anti-drug-resistant cancer activity” (Eur J Med Chem, 2020)
